The NIST ThermoML archive (doi:10.1021/je400468z)
Values joined by “and” are separate entries in the source; they are usually repeats but may differ in a detail not shown here. Equal entries are not always repeated.

Experiment: relative permittivity at various frequencies (dimensionless)
Conditions: Liquid, Frequency=0.001 MHz, Coaxial cylinder capacitor

CCCCCCC [heptane]
Conditions	relative permittivity
303.56 K, 320.13 kPa	1.90973
303.56 K, 1121.5 kPa	1.91097
303.56 K, 5049.5 kPa	1.9172
303.56 K, 10111 kPa	1.92498
303.56 K, 20218 kPa	1.93899
303.56 K, 20219 kPa	1.93899
303.56 K, 30315 kPa	1.95162
303.56 K, 30317 kPa	1.95171
303.56 K, 40408 kPa	1.96324
303.56 K, 50515 kPa	1.97403
303.56 K, 60608 kPa	1.98391
333.15 K, 327.25 kPa	1.86971
333.15 K, 1134.1 kPa	1.87125
333.15 K, 5058.1 kPa	1.87892
333.15 K, 5509 kPa	1.87899
333.15 K, 10118 kPa	1.88834
333.15 K, 10122 kPa	1.88832
333.15 K, 20230 kPa	1.90484
333.15 K, 20232 kPa	1.90482
333.15 K, 30327 kPa	1.91942
333.15 K, 30328 kPa	1.91944
333.15 K, 40419 kPa	1.93256
333.15 K, 50511 kPa	1.9444
333.15 K, 60625 kPa	1.95543
363.01 K, 328.75 kPa	1.82615
363.01 K, 1138 kPa	1.82815
363.01 K, 5057.6 kPa	1.83786
363.01 K, 5062.5 kPa	1.83787
363.01 K, 10125 kPa	1.84924
363.01 K, 20232 kPa	1.86884 and 1.86885
363.01 K, 30330 kPa	1.8855
363.01 K, 30332 kPa	1.88575
363.01 K, 40413 kPa	1.90054
363.01 K, 50513 kPa	1.9141
363.01 K, 60612 kPa	1.9264
363.01 K, 60613 kPa	1.92636
